Laboratory results taken from patent publication US5378836A, “Rapamycin oximes and hydrazones” (American Home Products Corporation, priority 1993, dated 1995).
pIC50: −log10 of the molar value. Structures can show the parent of a compound that is named as a salt. Where two headings read alike, the source gives them in different places.

Tests used:
[1] = system: thymocytes (T-cell proliferation); test: comitogen-induced thymocyte proliferation procedure (LAF); type: cell-based, BALB/c mice; conditions: Mus musculus; for inhibition at 0.1 µM: T-cell, read-out: LAF % Inhib. (percent inhibition of T-cell proliferation); for pIC50: Thymocyte, read-out: LAF IC50
Procedure: (§1) Immunosuppressive activity for representative compounds of this invention was evaluated in an in vitro standard pharmacological test procedure to measure lymphocyte proliferation (LAF) and in an in vivo standard pharmacological test procedure which evaluated the survival time of a pinch skin graft.
The comitogen-induced thymocyte proliferation procedure (LAF) was used as an in vitro measure of the immunosuppressive effects of representative compounds. Briefly, cells from the thymus of normal BALB/c mice are cultured for 72 hours with PHA and IL-1 and pulsed with tritiated thymidine during the last six hours. Cells are cultured with and without various concentrations of rapamycin, cyclosporin A, or test compound. Cells are harvested and incorporated radioactivity is determined. Inhibition of lymphoproliferation is assessed as percent change in counts per minute from non-drug treated controls. For each compound evaluated, rapamycin was also evaluated for the purpose of comparison. An IC50 was obtained for each test compound as well as for rapamycin.

[2] = system: pinch skin graft from male BAB/c donors transplanted to male C3 H(H-2K) recipients; test: survival time of a pinch skin graft; type: in vivo, male C3 H(H-2K) recipients (mouse strain); conditions: dose of 4 mg/kg, intraperitoneally or orally; untreated control usually rejected within 6-7 days
Procedure: as §1
Representative compounds of this invention were also evaluated in an in vivo test procedure designed to determine the survival time of pinch skin graft from male BAB/c donors transplanted to male C3 H(H-2K) recipients. The method is adapted from Billingham R. E. and Medawar P. B., J. Exp. Biol. 28:385-402, (1951). Briefly, a pinch skin graft from the donor was grafted on the dorsum of the recipient as a allograft, and an isograft was used as control in the same region. The recipients were treated with either varying concentrations of test compounds intraperitoneally or orally. Rapamycin was used as a test control. Untreated recipients serve as rejection control. The graft was monitored daily and observations were recorded until the graft became dry and formed a blackened scab. This was considered as the rejection day. The mean graft survival time (number of days±S.D.) of the drug treatment group was compared with the control group. […] Results are expressed as the mean survival time in days. Untreated (control) pinch skin grafts are usually rejected within 6-7 days. The results shown in Table 1 are based on a dose of 4 mg/kg of test compound. A survival time of 12.0±1.7 days was obtained for rapamycin at 4 mg/kg.

[3] = system: experimental allergic encephalomyelitis model; conditions: a model for multiple sclerosis; cited from earlier work
IgE-like antibodies = conditions: in vivo; cited from earlier work
Candida albicans = conditions: both in vitro and in vivo; cited from earlier work
[4] = alone or in combination with picibanil; cited from earlier work
[5] = thymus cells cultured 72 h with PHA and IL-1, tritiated thymidine during last six hours

SMILES | inhibition at 0.1 µM [1] [%] | pIC50 [1, 5] | Skin Graft mean survival time (days ± SD) [2] [days] | other results
CO[C@H]1C[C@@H]2CC[C@@H](C)[C@@](O)(O2)C(=O)C(=O)N2CCCC[C@H]2C(=O)O[C@H]([C@H](C)C[C@@H]2CC[C@@H](OC(=O)NCCc3ccccn3)[C@H](OC)C2)CC(=NO)[C@H](C)/C=C(\C)[C@@H](O)[C@@H](OC)C(=O)[C@H](C)C[C@H](C)/C=C/C=C/C=C/1C [Example 2, Rapamycin 27-oxime, 42-ester with 2-(pyridin-2-yl)-ethyl-carbamic acid] | 94 | 9.22 | 8.0 ± 0.6 | –
CO[C@H]1C[C@@H]2CC[C@@H](C)[C@@](O)(O2)C(=O)C(=O)N2CCCC[C@H]2C(=O)O[C@H]([C@H](C)C[C@@H]2CC[C@@H](OC(=O)NCCO)[C@H](OC)C2)CC(=NO)[C@H](C)/C=C(\C)[C@@H](O)[C@@H](OC)C(=O)[C@H](C)C[C@H](C)/C=C/C=C/C=C/1C [Example 4, Rapamycin 27-oxime, 42-ester with 2-hydroxyethyl carbamic acid] | 89 | 7.75 | – | –
CO[C@H]1C[C@@H]2CC[C@@H](C)[C@@](O)(O2)C(=O)C(=O)N2CCCC[C@H]2C(=O)O[C@H]([C@H](C)C[C@@H]2CC[C@@H](OS(=O)(=O)O)[C@H](OC)C2)CC(=NO)[C@H](C)/C=C(\C)[C@@H](O)[C@@H](OC)C(=O)[C@H](C)C[C@H](C)/C=C/C=C/C=C/1C [Example 6, Rapamycin 27-oxime, 42-sulfate ester pyridine salt] | 71 | – | 9.8 ± 0.4 | –
CO[C@H]1C[C@@H]2CC[C@@H](C)[C@@](O)(O2)C(=O)C(=O)N2CCCC[C@H]2C(=O)O[C@H]([C@H](C)C[C@@H]2CC[C@@H](OC(N)=O)[C@H](OC)C2)CC(=NO)[C@H](C)/C=C(\C)[C@@H](O)[C@@H](OC)C(=O)[C@H](C)C[C@H](C)/C=C/C=C/C=C/1C [Example 8, Rapamycin 27-oxime, 42-ester with carbamic acid] | 87 | 7.86 | 7.0 ± 0.0 | –
CO[C@H]1C[C@@H]2CC[C@@H](C)[C@@](O)(O2)C(=O)C(=O)N2CCCC[C@H]2C(=O)O[C@H]([C@H](C)C[C@@H]2CC[C@@H](OS(=O)(=O)c3cccc4cccnc34)[C@H](OC)C2)CC(=NO)[C@H](C)/C=C(\C)[C@@H](O)[C@@H](OC)C(=O)[C@H](C)C[C@H](C)/C=C/C=C/C=C/1C [Example 10, Rapamycin 27-oxime, 42-ester with 8-quinolinesulfonic acid] | 20 | 6.52 | – | –
CO/N=C1\C[C@@H]([C@H](C)C[C@@H]2CC[C@@H](OS(=O)(=O)c3cccc4cccnc34)[C@H](OC)C2)OC(=O)[C@@H]2CCCCN2C(=O)C(=O)[C@]2(O)O[C@@H](CC[C@H]2C)C[C@H](OC)/C(C)=C/C=C/C=C/[C@@H](C)C[C@@H](C)C(=O)[C@H](OC)[C@H](O)/C(C)=C/[C@H]1C [Example 11, Rapamycin (E)-27-O-(methyl)oxime, 42-ester with 8-quinolinesulfonic acid] | 17 | 6.59 | – | –
CO/N=C1/C[C@@H]([C@H](C)C[C@@H]2CC[C@@H](OS(=O)(=O)c3cccc4cccnc34)[C@H](OC)C2)OC(=O)[C@@H]2CCCCN2C(=O)C(=O)[C@]2(O)O[C@@H](CC[C@H]2C)C[C@H](OC)/C(C)=C/C=C/C=C/[C@@H](C)C[C@@H](C)C(=O)[C@H](OC)[C@H](O)/C(C)=C/[C@H]1C [Example 12, Rapamycin (Z)-27-O-(methyl)oxime, 42-ester with 8-quinolinesulfonic acid] | 30 | 6.68 | – | –
CO/N=C1/C[C@@H]([C@H](C)C[C@@H]2CC[C@@H](OC(=O)Nc3ccc([N+](=O)[O-])cc3)[C@H](OC)C2)OC(=O)[C@@H]2CCCCN2C(=O)C(=O)[C@]2(O)O[C@@H](CC[C@H]2C)C[C@H](OC)/C(C)=C/C=C/C=C/[C@@H](C)C[C@@H](C)C(=O)[C@H](OC)[C@H](O)/C(C)=C/[C@H]1C [Example 13, Rapamycin (Z)-27-O-(methyl)oxime, 42-ester with 4-nitrophenylcarbamic acid] | 14 | 6.24 | – | –
CO/N=C1/C[C@@H]([C@H](C)C[C@@H]2CC[C@@H](OS(=O)(=O)c3ccc(C)cc3)[C@H](OC)C2)OC(=O)[C@@H]2CCCCN2C(=O)C(=O)[C@]2(O)O[C@@H](CC[C@H]2C)C[C@H](OC)/C(C)=C/C=C/C=C/[C@@H](C)C[C@@H](C)C(=O)[C@H](OC)[C@H](O)/C(C)=C/[C@H]1C [Example 14, Rapamycin (Z)-27-O-(methyl)oxime, 42-ester with 4-methylbenzenesulfonic acid] | 20 | < 6.00 | – | –
CCOC(C)O[C@@H]1CC[C@@H](C[C@@H](C)[C@@H]2C/C(=N/OC)[C@H](C)/C=C(\C)[C@@H](O)[C@@H](OC)C(=O)[C@H](C)C[C@H](C)/C=C/C=C/C=C(\C)[C@@H](OC)C[C@@H]3CC[C@@H](C)[C@@](O)(O3)C(=O)C(=O)N3CCCC[C@H]3C(=O)O2)C[C@H]1OC (stereo partly drawn) [Example 16, 42-O-(1-Ethoxy-ethyl)-rapamycin-(Z)-27-O-(methyl)oxime] | 47 | 7.00 | – | –
CCOC(C)O[C@@H]1CC[C@@H](C[C@@H](C)[C@@H]2C/C(=N\OC)[C@H](C)/C=C(\C)[C@@H](O)[C@@H](OC)C(=O)[C@H](C)C[C@H](C)/C=C/C=C/C=C(\C)[C@@H](OC)C[C@@H]3CC[C@@H](C)[C@@](O)(O3)C(=O)C(=O)N3CCCC[C@H]3C(=O)O2)C[C@H]1OC (stereo partly drawn) [Example 17, 42-O-(1-Ethoxy-ethyl)-rapamycin-(E)-27-O-(methyl)oxime] | 73 | 7.52 | 7.8 ± 0.4 | –
CCCCNC(=O)O[C@@H]1CC[C@@H](C[C@@H](C)[C@@H]2C/C(=N/OC)[C@H](C)/C=C(\C)[C@@H](O)[C@@H](OC)C(=O)[C@H](C)C[C@H](C)/C=C/C=C/C=C(\C)[C@@H](OC)C[C@@H]3CC[C@@H](C)[C@@](O)(O3)C(=O)C(=O)N3CCCC[C@H]3C(=O)O2)C[C@H]1OC [Example 18, Rapamycin (Z)-27-O-(methyl)oxime-42-ester with butylcarbamic acid] | 18 | 6.55 | – | –
CO[C@H]1C[C@@H]2CC[C@@H](C)[C@@](O)(O2)C(=O)C(=O)N2CCCC[C@H]2C(=O)O[C@H]([C@H](C)C[C@@H]2CC[C@@H](O)[C@H](OC)C2)CC(=O)[C@H](C)/C=C(\C)[C@@H](O)[C@@H](OC)C(=O)[C@H](C)C[C@H](C)/C=C/C=C/C=C/1C [rapamycin] | – | – | 12.0 ± 1.7 | effect in the experimental allergic encephalomyelitis model [3]: effective in the experimental allergic encephalomyelitis model; inhibition of the formation of IgE-like antibodies (IgE-like antibodies): effectively inhibited the formation of IgE-like antibodies; pIC50 [1]: 8.01 to 9.40; antifungal activity, particularly against Candida albicans (Candida albicans): found to have antifungal activity, particularly against Candida albicans, both in vitro and in vivo; antitumor activity [4]: has been shown to have antitumor activity
